Measured values published in publication PMC4556614 (PLoS ONE, 2015).

What was measured:
OCT2 [1] = target: T1, OCT2 (Homo sapiens, UniProt O15244); assay: in vitro; conditions: for inhibition at 3 min, 20 µM / inhibition at 3 min, 200 µM: pH 7.3, probe [14C]metformin, 1000 µM; for inhibition at 3 min, 20 µM: % Inhibition of OCT2-dependent MF uptake at 20 µM (mean ± SEM); for inhibition at 3 min, 200 µM: % Inhibition of OCT2-dependent MF uptake at 200 µM (mean ± SEM), test drug 200 µM
Method: (§1) For the transport assays HEK cell lines stably transfected with human OCT2 (HEK-OCT2) or the vector only (HEK-VC) were used. The HEK-OCT2 cell line was established and characterized previously. HEK-OCT2 and HEK-VC cells were seeded in poly-D-lysine (Sigma Aldrich, Taufkirchen, Germany) coated 48-well-plates at a density of 1.2 x 10^5 cells/well. […] Uptake was stopped by washing the cells three times with ice-cold uptake buffer. Afterwards, cells were lysed with 5 mM Tris buffer (pH 7.3) containing 0.1% Triton X-100. The intracellular accumulation of radioactivity was determined by liquid scintillation counting (PerkinElmer, Rodgau-Jügesheim, Germany) and protein concentration of each lysate was measured with bicinchonic acid assay (BCA Protein Assay Kit, Thermo Fisher Scientific, Waltham, MA, USA). We performed two to eight experiments each on at least two separate days, i.e., n = 4–16.
Experimental half-maximal inhibitory concentrations (IC50 values) were measured as the substrate uptake in the presence of increasing concentrations of test drugs. These experiments were performed as described above (three experiments each on two separate days, i.e., n = 6). IC50 values were calculated with GraphPad Prism 5.0 (GraphPad Software, San Diego, CA, USA). IC50 was estimated by a sigmoidal inhibition model and was fit to the equation V = V 0 / (1 + (I / IC50 ) ^n ) by nonlinear regression. V is the net uptake in the presence of the inhibitor, V 0 is the net uptake in the absence of the inhibitor, I is the concentration of the inhibitor and n is the slope.

OCT2 [2] = target: T1, OCT2; assay: Inhibition of OCT2-mediated [3H]MPP+ uptake in HEK-OCT2 cells; conditions: for inhibition at 3 min, 20 µM / inhibition at 3 min, 200 µM: pH 7.3, probe [3H]MPP+, 50 µM
Method: as §1

[3] = test drug 20 µM, MPP+ 50 μM, 3 min, net uptake HEK-OCT2 minus HEK-VC
[4] = test drug 200 µM, MPP+ 50 μM, 3 min, net uptake HEK-OCT2 minus HEK-VC
[5] = human, test drug 20 µM, metformin 1000 μM, 3 min, net uptake HEK-OCT2 minus HEK-VC
[6] = human, metformin 1000 μM, 3 min, net uptake HEK-OCT2 minus HEK-VC

T1 sequence (O15244 whole entry): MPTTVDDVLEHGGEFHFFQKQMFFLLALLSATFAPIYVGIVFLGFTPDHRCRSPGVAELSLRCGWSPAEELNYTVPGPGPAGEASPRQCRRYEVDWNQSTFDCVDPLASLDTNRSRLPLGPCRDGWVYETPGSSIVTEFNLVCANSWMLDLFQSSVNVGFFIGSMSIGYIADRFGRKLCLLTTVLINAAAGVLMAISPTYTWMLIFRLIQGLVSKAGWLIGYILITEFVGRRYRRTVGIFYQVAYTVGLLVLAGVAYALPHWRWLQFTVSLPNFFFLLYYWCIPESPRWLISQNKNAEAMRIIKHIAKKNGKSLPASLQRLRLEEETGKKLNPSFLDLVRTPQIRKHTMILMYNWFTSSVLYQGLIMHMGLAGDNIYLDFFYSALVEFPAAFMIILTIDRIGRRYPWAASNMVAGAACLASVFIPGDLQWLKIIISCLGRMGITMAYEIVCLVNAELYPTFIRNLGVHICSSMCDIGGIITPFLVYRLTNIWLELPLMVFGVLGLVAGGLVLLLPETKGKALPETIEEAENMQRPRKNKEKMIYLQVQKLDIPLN

| SMILES | % Inhibition of OCT2-dependent MF uptake at 20 µM (mean ± SEM) (OCT2 [1]; human, pH 7.3) | % Inhibition of OCT2-dependent MF uptake at 200 µM (mean ± SEM) (OCT2 [1]; human, pH 7.3) | % Inhibition of OCT2-dependent MPP+ uptake at 20 µM (mean ± SEM) (OCT2 [2]; [3]) [%] | % Inhibition of OCT2-dependent MPP+ uptake at 200 µM (mean ± SEM) (OCT2 [2]; [4]) [%] | % Inhibition of OCT2-dependent MPP+ uptake at 20 µM (mean ± SEM) (OCT2 [2]; human, pH 7.3) | % Inhibition of OCT2-dependent MPP+ uptake at 200 µM (mean ± SEM) (OCT2 [2]; human, pH 7.3) | inhibition at 3 min, 20 µM (OCT2 [1]; [5]) [%] | inhibition at 3 min, 200 µM (OCT2 [1]; [6]) [%] | inhibition at 3 min, 20 µM (OCT2 [2]; human) [%] | inhibition at 3 min, 200 µM (OCT2 [2]; human) [%] | % Inhibition of OCT2-dependent MF uptake at 20 µM (mean ± SEM) (OCT2 [1]; test drug 20 µM, metformin 1000 μM, 3 min, net uptake HEK-OCT2 minus HEK-VC) [%] |
| --- | --- | --- | --- | --- | --- | --- | --- | --- | --- | --- | --- |
| COc1ccccc1OCCNCC(O)COc1cccc2[nH]c3ccccc3c12 (stereo not shown) [Carvedilol] | 84.3 ± 5.2% | 98.6 ± 0.5% | 32.2 ± 3.7 | 88.5 ± 1.5 | – | – | – | – | – | – | – |
| OC(CNCC(O)C1CCc2cc(F)ccc2O1)C1CCc2cc(F)ccc2O1 (stereo not shown) [Nebivolol] | 61.4 ± 10.4 | 75.2 ± 10.8 | -13.7 ± 13.3 | 43.2 ± 3.3 | – | – | – | – | – | – | – |
| Cc1cccc(Nc2ccncc2S(=O)(=O)NC(=O)NC(C)C)c1 [Torasemide] | -33.2 ± 5.0 | -19.5 ± 0.8 | -11.4 ± 2.3 | -40.3 ± 5.0 | – | – | – | – | – | – | – |
| CCOc1ccccc1OCCN[C@H](C)Cc1ccc(OC)c(S(N)(=O)=O)c1 [Tamsulosin] | – | 107.0 ± 3.1 | 14.9 ± 4.8 | 65.7 ± 2.9 | – | – | – | – | – | – | – |
| CC1CCN(CCCC(=O)c2ccc(F)cc2)CC1 [Melperone] | 75.0 ± 3.4 | 94.9 ± 4.2 | 8.6 ± 10.1 | 69.7 ± 3.8 | – | – | – | – | – | – | – |
| CCC(C)(C)C(=O)O[C@H]1C[C@@H](C)C=C2C=C[C@H](C)[C@H](CC[C@@H]3C[C@@H](O)CC(=O)O3)[C@H]21 [Simvastatin lactone] | -15.4 ± 5.5 | 57.6 ± 10.0 | 48.5 ± 9.0 | 53.8 ± 13.1 | – | – | – | – | – | – | – |
| NC(=O)CN1CCCC1=O [Piracetam] | 3.4 ± 3.4 | 2.5 ± 1.7 | -9.5 ± 12.1 | -0.5 ± 10.0 | – | – | – | – | – | – | – |
| CCOC(=O)C1=C(C)NC(C)=C(C(=O)OC)C1c1cccc(Cl)c1Cl (stereo not shown) [Felodipine] | 4.9 ± 6.1 | 15.9 ± 12.1 | -8.8 ± 12.0 | -16.8 ± 10.8 | – | – | – | – | – | – | – |
| COc1cccc(C2(O)CCCCC2CN(C)C)c1 (stereo not shown) [Tramadol] | 47.1 ± 9.5 | 103.7 ± 9.2 | – | – | 5.9 ± 7.9 | 31.4 ± 1.4 | – | – | – | – | – |
| CCOC(=O)[C@H](CCc1ccccc1)N[C@@H](C)C(=O)N1CCC[C@H]1C(=O)O [Enalapril] | 7.5 ± 2.3 | 34.2 ± 4.5 | 7.1 ± 7.4 | 20.2 ± 5.6 | – | – | – | – | – | – | – |
| COc1cc2nc(N3CCN(C(=O)C4COc5ccccc5O4)CC3)nc(N)c2cc1OC (stereo not shown) [Doxazosin] | 48.0 ± 5.5 | 92.1 ± 1.0 | 26.7 ± 10.3 | 45.8 ± 14.0 | – | – | – | – | – | – | – |
| Oc1ncnc2[nH]ncc12 [Allopurinol] | – | – | – | – | – | – | 24.8 ± 6.9 | 26.8 ± 3.9 | 35.6 ± 7.5 | 52.7 ± 8.8 | – |
| C[C@]12CCC(=O)C=C1[C@@H]1C[C@@H]1[C@H]1[C@@H]3[C@@H]4C[C@@H]4[C@@]4(CCC(=O)O4)[C@@]3(C)CC[C@@H]12 [Drospirenone] | – | – | – | – | – | – | > 85 | 99.1 ± 0.7 | 0 | 42.6 ± 1.4 | 88.0 ± 7.3 |
